Where two headings read alike, the source gives them in different places.
What was measured:
Assay type in all cases: biochemical
MMP-13 (Collagenase 3) = MMP-13 (Collagenase 3) (Homo sapiens, UniProt P45452); assay: inhibition of MMP-13 hydrolysis of thiopeptolide substrate
Excerpt: The invention compounds have been evaluated in standard in vitro assays and shown to be potent inhibitors of several matrix metalloproteinase enzymes.

MMP-3 (stromelysin) = MMP-3 (stromelysin) (Homo sapiens, UniProt P08254); assay: inhibition of MMP-3 hydrolysis of thiopeptolide substrate
Excerpt: The assays measure the amount by which a test compound reduces the hydrolysis of a thiopeptolide substrate caused by a matrix metalloproteinase enzyme. Such assays are described in detail by Ye, et al., in Biochemistry, 1992;31(45):11231-11235).
Thiopeptolide substrates show virtually no decomposition or hydrolysis in the absence of a matrix metalloproteinase enzyme. A typical thiopeptolide substrate commonly utilized for assays is Ac-Pro-Leu-Gly-thioester-Len-Len-Gly-O Et. […] Assays are carried out with and without matrix metalloproteinase inhibitor compounds, and the amount of hydrolysis is compared for a determination of inhibitory activity of the test compounds.
In the table, MMP-1 refers to interstitial collagenase; MMP-2 refers to Gelatinase A; MMP-3 refers to stromelysin; MMP-7 refers to matrilysin; and MMP-13 refers to Collagenase 3.

MMP-2 (Gelatinase A) = target: T1, MMP-2 (Gelatinase A) (Homo sapiens, UniProt P08253); assay: inhibition of MMP-2 hydrolysis of thiopeptolide substrate
T1 sequence (P08253 110-660): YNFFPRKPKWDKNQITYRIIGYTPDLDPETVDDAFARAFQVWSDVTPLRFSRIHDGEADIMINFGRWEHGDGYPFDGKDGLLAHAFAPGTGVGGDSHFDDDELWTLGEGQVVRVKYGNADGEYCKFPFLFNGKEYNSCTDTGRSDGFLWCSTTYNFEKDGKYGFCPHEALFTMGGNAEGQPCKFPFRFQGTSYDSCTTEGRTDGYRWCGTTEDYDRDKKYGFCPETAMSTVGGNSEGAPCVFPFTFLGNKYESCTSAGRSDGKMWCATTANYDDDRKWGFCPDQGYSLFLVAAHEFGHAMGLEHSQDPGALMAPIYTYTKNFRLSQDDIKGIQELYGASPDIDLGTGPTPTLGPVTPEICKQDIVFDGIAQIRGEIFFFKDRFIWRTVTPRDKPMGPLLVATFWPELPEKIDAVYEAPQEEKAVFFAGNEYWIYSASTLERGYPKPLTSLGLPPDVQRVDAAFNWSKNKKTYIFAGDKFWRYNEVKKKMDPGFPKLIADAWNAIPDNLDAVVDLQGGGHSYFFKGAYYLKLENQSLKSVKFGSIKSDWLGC

[1] = thiopeptolide substrate, pH 6.0, 22° C., read-out: (IC50) MMP-13
[2] = thiopeptolide substrate, pH 6.0, 22° C., read-out: (IC50) MMP-3
[3] = thiopeptolide substrate, pH 6.0, 22° C., read-out: (IC50) MMP-2

Chain of MMP-3 (stromelysin) (P08254 100-477): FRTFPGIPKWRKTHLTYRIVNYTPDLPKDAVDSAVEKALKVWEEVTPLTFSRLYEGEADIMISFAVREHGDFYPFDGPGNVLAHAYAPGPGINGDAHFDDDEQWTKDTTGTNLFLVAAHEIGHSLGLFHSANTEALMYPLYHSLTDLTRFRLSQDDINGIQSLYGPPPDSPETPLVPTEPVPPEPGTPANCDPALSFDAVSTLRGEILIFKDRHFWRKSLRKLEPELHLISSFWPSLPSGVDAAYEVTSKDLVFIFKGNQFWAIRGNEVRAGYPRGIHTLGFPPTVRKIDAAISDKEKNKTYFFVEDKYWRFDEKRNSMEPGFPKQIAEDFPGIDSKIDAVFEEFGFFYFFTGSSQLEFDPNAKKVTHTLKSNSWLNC

## CCCCCCCC(=O)N[C@@H](CC(=O)c1ccc2oc3ccccc3c2c1)C(=O)O [Example 11, (S)-4-Dibenzofuran-2-yl-4-oxo-2-(octanoylamino)-butyric acid]
MMP-13 (Collagenase 3); [1]
  IC50: 6800 nM
MMP-3 (stromelysin); [2]
  IC50: 2700 nM
MMP-2 (Gelatinase A); [3]
  IC50: 360 nM

## CCCCCCC(=O)NC(CC(=O)c1ccc2oc3ccccc3c2c1)C(=O)O (stereo not drawn) [Example 33, 4-Dibenzofuran-2-yl-2-heptanoylamino-4-oxo-butyric acid]
MMP-13 (Collagenase 3); [1]
  IC50: 4700 nM
MMP-3 (stromelysin); [2]
  IC50: 640 nM
MMP-2 (Gelatinase A); [3]
  IC50: 60 nM

## O=C(CC(NC(=O)c1ccc(Cl)c(Cl)c1)C(=O)O)c1ccc2oc3ccccc3c2c1 (stereo not drawn) [Example 20]
MMP-13 (Collagenase 3); [1]
  IC50: 38000 nM
MMP-3 (stromelysin); [2]
  IC50: 7000 nM
MMP-2 (Gelatinase A); [3]
  IC50: 1300 nM

## O=C(C[C@H](NC(=O)C(F)(F)F)C(=O)O)c1ccc2c(c1)Cc1ccccc1-2 [Example 15, (S)-4-(9H-fluoren-2-yl)-4-oxo-2-(2,2,2-trifluoroacetylamino)-butyric acid]
MMP-3 (stromelysin); [2]
  IC50: 76500 nM
MMP-2 (Gelatinase A); [3]
  IC50: 12500 nM

## O=C(CC(NC(=O)c1ccc2ccccc2c1)C(=O)O)c1ccc2oc3ccccc3c2c1 (stereo not drawn) [Example 22, 4-Dibenzofuran-2-yl-2-[(naphthalene-2-carbonyl)-amino] -4-oxo-butyric acid]
MMP-13 (Collagenase 3); [1]
  IC50: 28000 nM
MMP-3 (stromelysin); [2]
  IC50: 6900 nM
MMP-2 (Gelatinase A); [3]
  IC50: 1700 nM

## O=C(CC(NC(=O)c1ccc(Br)cc1)C(=O)O)c1ccc2oc3ccccc3c2c1 (stereo not drawn) [Example 42, 2-(4-Bromo-benzoylamino)-4-dibenzofuran-2-yl-4-oxo-butyric acid]
MMP-13 (Collagenase 3); [1]
  IC50: 17000 nM
MMP-3 (stromelysin); [2]
  IC50: 1300 nM
MMP-2 (Gelatinase A); [3]
  IC50: 180 nM

## O=C(CC(NC(=O)C(F)(F)C(F)(F)C(F)(F)C(F)(F)C(F)(F)C(F)(F)C(F)(F)F)C(=O)O)c1ccc2oc3ccccc3c2c1 (stereo not drawn) [Example 27, 4-Dibenzofuran-2-yl-4-oxo-2-(2,2,3,3,4,4,5,5,6,6,7,7,8,8,8-pentadecafluoro-octanoylamino)-butyric acid]
MMP-13 (Collagenase 3)
  IC50: 77000 nM
MMP-3 (stromelysin)
  IC50: 18000 nM
MMP-2 (Gelatinase A)
  IC50: 4600 nM

## O=C(COCc1ccccc1)NC(CC(=O)c1ccc2oc3ccccc3c2c1)C(=O)O (stereo not drawn) [Example 32, 2-(2-Benzyloxy-acetylamino)-4-dibenzofuran-2-yl-4-oxo-butyric acid]
MMP-13 (Collagenase 3); [1]
  IC50: 3500 nM
MMP-3 (stromelysin); [2]
  IC50: 330 nM
MMP-2 (Gelatinase A); [3]
  IC50: 41 nM

## O=C(CC(NC(=O)c1cccs1)C(=O)O)c1ccc2oc3ccccc3c2c1 (stereo not drawn) [Example 51, 4-Dibenzofuran-2-yl-4-oxo-2-[(thiophene-2-carbonyl)-amino]-butyric acid]
MMP-13 (Collagenase 3); [1]
  IC50: 16000 nM
MMP-3 (stromelysin); [2]
  IC50: 1300 nM
MMP-2 (Gelatinase A); [3]
  IC50: 160 nM

## O=C(CCc1ccccc1)N[C@@H](CC(=O)c1ccc2oc3ccccc3c2c1)C(=O)O [Example 8, (S)-4-Dibenzofuran-2-yl-4-oxo-2-(3-phenylpropionylamino)-butyric acid]
MMP-13 (Collagenase 3); [1]
  IC50: 1300 nM
MMP-3 (stromelysin); [2]
  IC50: 290 nM
MMP-2 (Gelatinase A); [3]
  IC50: 67 nM

## CCC(C(=O)NC(CC(=O)c1ccc2oc3ccccc3c2c1)C(=O)O)c1ccccc1 (stereo not drawn) [Example 54, 4-Dibenzofuran-2-yl-4-oxo-2-(2-phenylbutyrylamino)-butyric acid]
MMP-13 (Collagenase 3); [1]
  IC50: 1500 nM
MMP-3 (stromelysin); [2]
  IC50: 250 nM
MMP-2 (Gelatinase A); [3]
  IC50: 60 nM

## O=C(C[C@H](NC(=O)c1ccccc1)C(=O)O)c1ccc2oc3ccccc3c2c1 [Example 6, (S)-2-Benzoylamino-4-dibenzofuran-2-yl-4-oxo-butyric acid]
MMP-3 (stromelysin); [2]
  IC50: 910 nM
MMP-2 (Gelatinase A); [3]
  IC50: 180 nM

## Cc1ccc(C(=O)NC(CC(=O)c2ccc3oc4ccccc4c3c2)C(=O)O)cc1 (stereo not drawn) [Example 29, 4-Dibenzofuran-2-yl-2-(4-methyl-benzoylamino)-4-oxo-butyric acid]
MMP-13 (Collagenase 3); [1]
  IC50: 5200 nM
MMP-3 (stromelysin); [2]
  IC50: 390 nM

## O=C(CCCCCCc1ccccc1)N[C@@H](CC(=O)c1ccc2oc3ccccc3c2c1)C(=O)O [Example 9, (S)-4-Dibenzofuran-2-yl-4-oxo-2-(7-phenylheptanoylamino)-butyric acid]
MMP-3 (stromelysin); [2]
  IC50: 3900 nM
MMP-2 (Gelatinase A); [3]
  IC50: 510 nM

## O=C(CC(NC(=O)c1ccc2c(c1)OCO2)C(=O)O)c1ccc2oc3ccccc3c2c1 (stereo not drawn) [Example 53, 2-[(Benzo[1,3)dioxole-5-carbonyl)-amino]-4-dibenzofuran-2-yl-4-oxo-butyric acid]
MMP-13 (Collagenase 3); [1]
  IC50: 9200 nM
MMP-3 (stromelysin); [2]
  IC50: 1000 nM
MMP-2 (Gelatinase A); [3]
  IC50: 130 nM

## O=C(CC(NC(=O)c1ccc(F)cc1)C(=O)O)c1ccc2oc3ccccc3c2c1 (stereo not drawn) [Example 43, 4-Dibenzofuran-2-yl-2-(4-fluoro-benzoylamino)-4-oxo-butyric acid]
MMP-13 (Collagenase 3); [1]
  IC50: 7100 nM
MMP-3 (stromelysin); [2]
  IC50: 660 nM
MMP-2 (Gelatinase A); [3]
  IC50: 70 nM

## O=C(CC(NC(=O)c1ccncc1)C(=O)O)c1ccc2oc3ccccc3c2c1 (stereo not drawn) [Example 24, 4-Dibenzofuran-2-yl-4-oxo-2-[(pyridine-4-carbonyl)-amino]-butyric acid]
MMP-13 (Collagenase 3); [1]
  IC50: 41000 nM
MMP-3 (stromelysin); [2]
  IC50: 13000 nM
MMP-2 (Gelatinase A); [3]
  IC50: 3200 nM

## O=C(CC(NC(=O)c1sccc1Cl)C(=O)O)c1ccc2oc3ccccc3c2c1 (stereo not drawn) [Example 36, 2-[(3-Chloro-thiophene-2-carbonyl)-amino)-4-dibenzofuran-2-yl-4-oxo-butyric acid]
MMP-13 (Collagenase 3); [1]
  IC50: 13000 nM
MMP-3 (stromelysin); [2]
  IC50: 1000 nM
MMP-2 (Gelatinase A); [3]
  IC50: 140 nM

## O=C(C[C@H](NC(=O)c1ccc(-c2ccccc2)cc1)C(=O)O)c1ccc2oc3ccccc3c2c1 [Example 10, (S)-2-[(Biphenyl-4-carbonyl)-amino]-4-dibenzofuran-2-yl-4-oxo-butyric acid]
MMP-3 (stromelysin); [2]
  IC50: 9400 nM
MMP-2 (Gelatinase A); [3]
  IC50: 1640 nM

## Cc1nn(-c2ccccc2)nc1C(=O)NC(CC(=O)c1ccc2oc3ccccc3c2c1)C(=O)O (stereo not drawn) [Example 55, 4-Dibenzofuran-2-yl-2-[(5-methyl-2-phenyl-2H-[1,2,3]triazole-4-carbonyl)-amino]-4-oxo-butyric acid]
MMP-13 (Collagenase 3); [1]
  IC50: 70000 nM
MMP-3 (stromelysin); [2]
  IC50: 14000 nM
MMP-2 (Gelatinase A); [3]
  IC50: 1800 nM

## O=C(O)[C@H](CC(=NO)c1ccc2oc3ccccc3c2c1)NC(=O)C(F)(F)F [Example 16, (S)-4-Dibenzofuran-2-yl-4-hydroxyimino-2-(2,2,2-trifluoroacetylamino)-butyric acid]
MMP-13 (Collagenase 3); [1]
  IC50: 2400 nM
MMP-3 (stromelysin); [2]
  IC50: 6600 nM
MMP-2 (Gelatinase A); [3]
  IC50: 720 nM

## O=C(CC(NC(=O)C12CC3CC(CC(C3)C1)C2)C(=O)O)c1ccc2oc3ccccc3c2c1 (stereo not drawn) [Example 26, 2-[(Adamantane-1-carbonyl)-amino]-4-dibenzofuran-2-yl-4-oxo-butyric acid]
MMP-13 (Collagenase 3); [1]
  IC50: 40000 nM
MMP-3 (stromelysin); [2]
  IC50: 9200 nM
MMP-2 (Gelatinase A); [3]
  IC50: 2100 nM

## O=C(CC(NC(=O)C1CC1)C(=O)O)c1ccc2oc3ccccc3c2c1 (stereo not drawn) [Example 38, 2-(Cyclopropanecarbonyl-amino)-4-dibenzofuran-2-yl-4-oxo-butyric acid]
MMP-13 (Collagenase 3); [1]
  IC50: 5600 nM
MMP-3 (stromelysin); [2]
  IC50: 850 nM
MMP-2 (Gelatinase A); [3]
  IC50: 90 nM

## CS(=O)(=O)N[C@@H](CC(=O)c1ccc2oc3ccccc3c2c1)C(=O)O [Example 13, (S)-4-Dibenzofuran-2-yl-4-oxo-2-methanesulfonylamino-butyric acid]
MMP-3 (stromelysin); [2]
  IC50: 9200 nM
MMP-2 (Gelatinase A); [3]
  IC50: 280 nM

## O=C(CC(NC(=O)c1ccccn1)C(=O)O)c1ccc2oc3ccccc3c2c1 (stereo not drawn) [Example 45, 4-Dibenzofuran-2-yl-4-oxo-2-[(pyridine-2-carbonyl)-amino]-butyric acid]
MMP-13 (Collagenase 3); [1]
  IC50: 15000 nM
MMP-3 (stromelysin); [2]
  IC50: 1000 nM
MMP-2 (Gelatinase A); [3]
  IC50: 110 nM

## O=C(CC(NC(=O)c1ccc(C(F)(F)F)cc1)C(=O)O)c1ccc2oc3ccccc3c2c1 (stereo not drawn) [Example 48, 4-Dibenzofuran-2-yl-4-oxo-2-(4-trifluoromethyl-benzoylamino)-butyric acid]
MMP-13 (Collagenase 3); [1]
  IC50: 20000 nM
MMP-3 (stromelysin); [2]
  IC50: 1500 nM
MMP-2 (Gelatinase A); [3]
  IC50: 320 nM

## O=C(C[C@@H](NC(=O)C(F)(F)F)C(=O)O)c1ccc2oc3ccccc3c2c1 [Example 2, (R)-4-Dibenzofuran-2-yl-4-oxo-2-(2,2,2-trifluoroacetylamino)-butyric acid]
MMP-3 (stromelysin); [2]
  IC50: 78000 nM
MMP-2 (Gelatinase A); [3]
  IC50: 44000 nM

## CCCCCCCCCCCC(=O)N[C@@H](CC(=O)c1ccc2oc3ccccc3c2c1)C(=O)O [Example 12, (S)-4-Dibenzofuran-2-yl-4-oxo-2-(dodecanoylamino)-butyric acid]
MMP-3 (stromelysin); [2]
  IC50: 4000 nM
MMP-2 (Gelatinase A); [3]
  IC50: 8800 nM

## O=C(CC(NC(=O)c1c(F)c(F)c(F)c(F)c1F)C(=O)O)c1ccc2oc3ccccc3c2c1 (stereo not drawn) [Example 40, 4-Dibenzofuran-2-yl-4-oxo-2-(2,3,4,5,6-pentafluoro-benzoylamino)-butyric acid]
MMP-3 (stromelysin); [2]
  IC50: 28000 nM
MMP-2 (Gelatinase A); [3]
  IC50: 5200 nM

## CC(C)c1cccc(C(C)C)c1NC(=O)N[C@@H](CC(=O)c1ccc2oc3ccccc3c2c1)C(=O)O [Example 5, (S)-4-Dibenzofuran-2-yl-2-[3-(2,6-diisopropyl-phenyl)-ureido]-4-oxo-butyric acid]
MMP-3 (stromelysin); [2]
  IC50: 1700 nM
MMP-2 (Gelatinase A); [3]
  IC50: 320 nM

## CC(=O)N[C@@H](CC(=O)c1ccc2oc3ccccc3c2c1)C(=O)O [Example 4, (S)-2-Acetylamino-4-dibenzofuran-2-yl-4-oxo-butyric acid]
MMP-3 (stromelysin); [2]
  IC50: 1600 nM

From patent US6020366A, “Butyric acid matrix metalloproteinase inhibitors” (priority 1998, dated 2000)
